Source: patent US10633407B2, “14-membered ketolides and methods of their preparation and use” (President and Fellows of Harvard College, priority 2014, dated 2020)
Values after ≈ are worked out from the molar mass of the structure shown.

Legend:
Experiment in all cases: CLSI broth dilution MIC determination
Format in all cases: cell-based
K. pneumoniae SHV-12 = conditions: Gram-negative
K. pneumoniae ATCC 10031 = conditions: K. pneumoniae ATCC 10031; Gram-negative
[1] = test system: A. baumannii chromosomal class C; conditions: Gram-negative
[2] = test system: E. faecalis Vancomycin-resistant; conditions: E. faecalis Vancomycin-resistant; Gram-positive
P. aeruginosa ATCC 27853 = conditions: P. aeruginosa ATCC 27853; Gram-negative
[3] = test system: P. aeruginosa HPA101-1477; conditions: Gram-negative
E. faecalis ATCC 29212 = conditions: E. faecalis ATCC 29212; Gram-positive
[4] = test system: A. baumannii imipenem-resistant; conditions: Gram-negative
A. baumannii IMP-4 = conditions: Gram-negative
[5] = test system: S. pyogenes Macrolide-resistant; conditions: S. pyogenes Macrolide-resistant; Gram-positive
S. pyogenes ATCC 19615 = conditions: S. pyogenes ATCC 19615; Gram-positive
K. pneumoniae KPC-2 = conditions: Gram-negative
A. baumannii ATCC 19606 = conditions: A. baumannii ATCC 19606; Gram-negative
E. coli ATCC 25922 = conditions: E. coli ATCC 25922; Gram-negative
Outline: (§1)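 MICs were measured by broth dilution following CLSI standard procedures. Azithromycin and solithromycin served as control macrolides in many cases. Macrolide-resistance genotypes in the panel may be constitutive or inducible.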

S. aureus ATCC 29213 = conditions: S. aureus ATCC 29213; Gram-positive
Outline: as §1

[6] = test system: S. pneumoniae erm B + mef A genotype; conditions: S. pneumoniae erm B + mef A genotype; Gram-positive
Outline: as §1

K. pneumoniae TEM-10 = conditions: Gram-negative
H. influenzae ATCC49247 = conditions: Gram-negative
Outline: as §1

E. coli CTX-M-14 = conditions: Gram-negative
Outline: as §1

E. coli TEM-1 = conditions: E. coli TEM-1; Gram-negative
Outline: as §1

S. aureus USA600, GISA = conditions: S. aureus USA600, GISA; Gram-positive
Outline: as §1

[7] = test system: S. pneumoniae mef A genotype (second strain so labelled); conditions: Gram-positive
Outline: as §1

S. aureus MRSA: USA300 = conditions: S. aureus MRSA: USA300; Gram-positive
Outline: as §1

S. aureus MRSA: USA100 = conditions: S. aureus MRSA: USA100; Gram-positive
Outline: as §1

E. coli NDM-1 = conditions: Gram-negative
Outline: as §1

S. aureus erm A genotype = conditions: S. aureus erm A genotype; Gram-positive
Outline: as §1

S. pneumoniae ATCC 49619 = conditions: S. pneumoniae ATCC 49619; Gram-positive
Outline: as §1

[8] = test system: H. influenzae Erythro >4, Azithro 1; conditions: H. influenzae Erythro >4, Azithro 1; Gram-negative
From the text: MIC data was collected for the novel macrolides that this platform has produced against over 21 unique strains of B. subtilis, E. coli, S. aureus, S. pneumoniae, and H. influenzae, including several multidrug-resistant strains, with a special focus on macrolide resistant mechanisms (vide supra). […] CLSI standard procedures for broth dilution MIC determination were used. […] These genotypes can be constitutive or inducible.

| Compound | MIC (K. pneumoniae SHV-12) | MIC (K. pneumoniae ATCC 10031) | MIC [1] | MIC [2] | MIC (P. aeruginosa ATCC 27853) | MIC [3] | MIC (E. faecalis ATCC 29212) | MIC [4] | MIC (A. baumannii IMP-4) | MIC [5] | MIC (S. pyogenes ATCC 19615) | MIC (K. pneumoniae KPC-2) | MIC (A. baumannii ATCC 19606) | MIC (E. coli ATCC 25922) | MIC (S. aureus ATCC 29213) | MIC [6] | MIC (K. pneumoniae TEM-10) | MIC (H. influenzae ATCC49247) | MIC (E. coli CTX-M-14) | MIC (E. coli TEM-1) | further results |
| --- | --- | --- | --- | --- | --- | --- | --- | --- | --- | --- | --- | --- | --- | --- | --- | --- | --- | --- | --- | --- | --- |
| CC[C@H]1OC(=O)[C@@](C)(F)C(=O)[C@H](C)[C@@H](O[C@@H]2OC(C)CC(N(C)C)C2O)[C@](C)(OC)C[C@@H](C)C(=O)[C@H](C)[C@H]2N(C/C=C/Cn3cc(-c4nccs4)nn3)C(=O)O[C@]12C (some centres unmarked) [FSM-11562] | > 32 µg/mL | 4 µg/mL (≈ 4.79 µM) | 8 µg/mL (≈ 9.58 µM) | > 32 µg/mL | > 32 µg/mL | > 32 µg/mL | ≤ 0.0312 µg/mL | 8 µg/mL (≈ 9.58 µM) | > 32 µg/mL | 0.125 µg/mL (≈ 0.15 µM) | ≤ 0.0312 µg/mL | > 32 µg/mL | 8 µg/mL (≈ 9.58 µM) | 16 µg/mL (≈ 19.2 µM) | 0.0625 µg/mL (≈ 0.0748 µM) | 0.25 µg/mL | 32 µg/mL (≈ 38.3 µM) | 4 µg/mL (≈ 4.79 µM) | > 32 µg/mL | 16 µg/mL (≈ 19.2 µM) | MIC (S. aureus USA600, GISA): > 32 µg/mL; MIC [7]: 0.0625 µg/mL (≈ 0.0748 µM); MIC (S. aureus MRSA: USA300): 1 µg/mL (≈ 1.2 µM); MIC (S. aureus MRSA: USA100): > 32 µg/mL; MIC (E. coli NDM-1): > 32 µg/mL; MIC (S. aureus erm A genotype): > 32 µg/mL; MIC (S. pneumoniae ATCC 49619): ≤ 0.0312 µg/mL; MIC [8]: 2 µg/mL (≈ 2.4 µM) |
| CC[C@H]1OC(=O)[C@H](C)C(=O)[C@H](C)[C@@H](O[C@@H]2OC(C)CC(N(C)C)C2O)[C@](C)(OC)C[C@@H](C)C(=O)[C@H](C)[C@H]2N(CC#CCn3cc(-c4cccc(N)c4)nn3)C(=O)O[C@]12C (some centres unmarked) [FSM-100239] | > 32 µg/mL | 4 µg/mL (≈ 4.86 µM) | 2 µg/mL (≈ 2.43 µM) | 16 µg/mL (≈ 19.4 µM) | > 32 µg/mL | > 32 µg/mL | ≤ 0.0312 µg/mL | 4 µg/mL (≈ 4.86 µM) | > 32 µg/mL | ≤ 0.0312 µg/mL | ≤ 0.0312 µg/mL | > 32 µg/mL | 8 µg/mL (≈ 9.72 µM) | 16 µg/mL (≈ 19.4 µM) | ≤ 0.0312 µg/mL | 0.0625 µg/mL | 32 µg/mL (≈ 38.9 µM) | 1 µg/mL (≈ 1.22 µM) | > 32 µg/mL | 16 µg/mL (≈ 19.4 µM) | MIC (S. aureus USA600, GISA): > 32 µg/mL; MIC [7]: ≤ 0.0312 µg/mL; MIC (S. aureus MRSA: USA300): 0.25 µg/mL (≈ 0.304 µM); MIC (S. aureus MRSA: USA100): > 32 µg/mL; MIC (E. coli NDM-1): > 32 µg/mL; MIC (S. aureus erm A genotype): > 32 µg/mL; MIC (S. pneumoniae ATCC 49619): ≤ 0.0312 µg/mL; MIC [8]: 1 µg/mL (≈ 1.22 µM) |
| CC[C@H]1OC(=O)[C@@](C)(F)C(=O)[C@H](C)[C@@H](O[C@@H]2OC(C)CC(N(C)C)C2O)[C@](C)(OC)C[C@@H](C)C(=O)[C@H](C)[C@H]2N(C/C=C/Cn3cc(-c4cnc(N)s4)nn3)C(=O)O[C@]12C (some centres unmarked) [FSM-100240] | > 32 µg/mL | 4 µg/mL (≈ 4.71 µM) | 16 µg/mL (≈ 18.8 µM) | 8 µg/mL (≈ 9.41 µM) | > 32 µg/mL | > 32 µg/mL | ≤ 0.0312 µg/mL | 32 µg/mL (≈ 37.6 µM) | > 32 µg/mL | 0.25 µg/mL (≈ 0.294 µM) | ≤ 0.0312 µg/mL | > 32 µg/mL | 32 µg/mL (≈ 37.6 µM) | > 32 µg/mL | ≤ 0.0312 µg/mL | 0.125 µg/mL | 32 µg/mL (≈ 37.6 µM) | 1 µg/mL (≈ 1.18 µM) | > 32 µg/mL | 32 µg/mL (≈ 37.6 µM) | MIC (S. aureus USA600, GISA): > 32 µg/mL; MIC [7]: 0.25 µg/mL (≈ 0.294 µM); MIC (S. aureus MRSA: USA300): 1 µg/mL (≈ 1.18 µM); MIC (S. aureus MRSA: USA100): > 32 µg/mL; MIC (E. coli NDM-1): > 32 µg/mL; MIC (S. aureus erm A genotype): > 32 µg/mL; MIC (S. pneumoniae ATCC 49619): ≤ 0.0312 µg/mL; MIC [8]: 1 µg/mL (≈ 1.18 µM) |
| CC[C@H]1OC(=O)[C@H](C)C(=O)[C@H](C)[C@@H](O[C@@H]2OC(C)CC(N(C)C)C2O)[C@](C)(OC)C[C@@H](C)C(=O)[C@H](C)[C@H]2N(C/C=C/Cn3cc(-c4ccccn4)nn3)C(=O)O[C@]12C (some centres unmarked) [FSM-100341] | > 32 µg/mL | 8 µg/mL (≈ 9.86 µM) | 32 µg/mL (≈ 39.5 µM) | > 32 µg/mL | > 32 µg/mL | > 32 µg/mL | < 0.0312 µg/mL | 16 µg/mL (≈ 19.7 µM) | > 32 µg/mL | < 0.0312 µg/mL | < 0.0312 µg/mL | > 32 µg/mL | 16 µg/mL (≈ 19.7 µM) | > 32 µg/mL | < 0.0312 µg/mL | 0.25 µg/mL | 32 µg/mL (≈ 39.5 µM) | 1 µg/mL (≈ 1.23 µM) | > 32 µg/mL | 32 µg/mL (≈ 39.5 µM) | MIC (S. aureus USA600, GISA): > 32 µg/mL; MIC [7]: < 0.0312 µg/mL; MIC (S. aureus MRSA: USA300): 2 µg/mL (≈ 2.47 µM); MIC (S. aureus MRSA: USA100): > 32 µg/mL; MIC (E. coli NDM-1): > 32 µg/mL; MIC (S. aureus erm A genotype): > 32 µg/mL; MIC (S. pneumoniae ATCC 49619): < 0.0312 µg/mL; MIC [8]: 1 µg/mL (≈ 1.23 µM) |
| CC[C@H]1OC(=O)[C@H](C)C(=O)[C@H](C)[C@@H](O[C@@H]2OC(C)CC(N(C)C)C2O)[C@](C)(OC)C[C@@H](C)C(=O)[C@H](C)[C@H]2N(C/C=C/Cn3cc(-c4cccc(N)n4)nn3)C(=O)O[C@]12C (some centres unmarked) [FSM-100364] | > 32 µg/mL | 8 µg/mL (≈ 9.69 µM) | 8 µg/mL (≈ 9.69 µM) | > 32 µg/mL | > 32 µg/mL | > 32 µg/mL | < 0.0312 µg/mL | 4 µg/mL (≈ 4.84 µM) | > 32 µg/mL | < 0.0312 µg/mL | < 0.0312 µg/mL | > 32 µg/mL | 8 µg/mL (≈ 9.69 µM) | 16 µg/mL (≈ 19.4 µM) | < 0.0312 µg/mL | 0.125 µg/mL | 32 µg/mL (≈ 38.7 µM) | 2 µg/mL (≈ 2.42 µM) | > 32 µg/mL | > 32 µg/mL | MIC (S. aureus USA600, GISA): > 32 µg/mL; MIC [7]: 0.25 µg/mL (≈ 0.303 µM); MIC (S. aureus MRSA: USA300): 2 µg/mL (≈ 2.42 µM); MIC (S. aureus MRSA: USA100): > 32 µg/mL; MIC (E. coli NDM-1): > 32 µg/mL; MIC (S. aureus erm A genotype): > 32 µg/mL; MIC (S. pneumoniae ATCC 49619): < 0.0312 µg/mL; MIC [8]: 0.5 µg/mL (≈ 0.605 µM) |
